According to publication PMC4151236, “Early identification of hERG liability in drug discovery programs by automated patch clamp” (Frontiers in Pharmacology, 2014):

Molecular target: T1, hERG (Kv11.1) (Homo sapiens, UniProt Q12809)
T1 construct: gene KCNH2
Assay: automated whole-cell patch clamp (QPatch), CHO hERG DUO cells, three-point dose-response
Type: cell-based

T1 sequence (Q12809 whole entry): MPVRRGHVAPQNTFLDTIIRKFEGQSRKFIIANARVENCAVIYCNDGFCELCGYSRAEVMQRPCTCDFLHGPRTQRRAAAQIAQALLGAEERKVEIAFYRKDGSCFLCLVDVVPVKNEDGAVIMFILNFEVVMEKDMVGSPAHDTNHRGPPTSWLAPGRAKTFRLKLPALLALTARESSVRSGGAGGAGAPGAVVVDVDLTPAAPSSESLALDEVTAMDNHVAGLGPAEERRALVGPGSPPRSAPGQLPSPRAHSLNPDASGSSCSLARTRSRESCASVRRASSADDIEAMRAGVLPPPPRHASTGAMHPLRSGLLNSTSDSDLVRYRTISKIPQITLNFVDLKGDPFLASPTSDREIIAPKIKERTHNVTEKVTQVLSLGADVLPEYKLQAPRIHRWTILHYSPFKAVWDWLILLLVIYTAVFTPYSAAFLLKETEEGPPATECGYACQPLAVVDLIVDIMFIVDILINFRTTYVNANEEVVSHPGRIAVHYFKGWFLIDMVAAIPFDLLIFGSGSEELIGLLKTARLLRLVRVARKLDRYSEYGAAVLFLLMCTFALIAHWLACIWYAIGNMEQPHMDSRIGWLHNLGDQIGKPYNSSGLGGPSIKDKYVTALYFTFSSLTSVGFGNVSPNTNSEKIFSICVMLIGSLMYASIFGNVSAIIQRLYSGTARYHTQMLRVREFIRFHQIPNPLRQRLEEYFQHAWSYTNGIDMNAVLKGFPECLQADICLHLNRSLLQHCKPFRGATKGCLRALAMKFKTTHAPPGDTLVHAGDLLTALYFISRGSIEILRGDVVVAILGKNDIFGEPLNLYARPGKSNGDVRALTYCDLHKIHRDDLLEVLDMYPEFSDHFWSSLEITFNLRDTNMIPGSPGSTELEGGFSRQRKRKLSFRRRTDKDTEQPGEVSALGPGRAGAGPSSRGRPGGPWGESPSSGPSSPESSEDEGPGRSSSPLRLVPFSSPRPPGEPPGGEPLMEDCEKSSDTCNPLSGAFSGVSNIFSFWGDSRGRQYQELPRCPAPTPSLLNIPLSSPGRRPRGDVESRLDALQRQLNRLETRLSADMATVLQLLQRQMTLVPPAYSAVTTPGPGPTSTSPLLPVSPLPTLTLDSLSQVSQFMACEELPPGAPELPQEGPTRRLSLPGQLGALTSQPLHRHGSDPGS

Question: For `COc1cc(N)c(Cl)cc1C(=O)NC1CCN(CCCOc2ccc(F)cc2)CC1OC` (stereo not shown) [Cisapride], which “automated whole-cell patch clamp (QPatch), CHO hERG DUO cells, three-point dose-” value is on record?
Answer: Its value is “superimposed to visualize the effect of increasing concentrations of the known hERG blocker Cisapride”.
